Assay results reported in patent US20230172897A1, “METHODS OF TREATING BREAST CANCERS WITH SELECTIVE ANDROGEN RECEPTOR MODULATORS AND ADDITIONAL THERAPEUTIC AGENTS” (VERU, INC., priority 2021, published 2023).
Where “and” joins values, the source holds several entries; their conditions need not be identical. Equal values may be shown once.

Tested on: ER-positive metastatic breast cancer
Experiment: Phase 2 clinical trial (G200801), 9 mg daily
Format: in vivo, women
Experimental: The goal of this study was to determine the importance of the AR status as a therapeutic target in women with ER-positive metastatic breast cancer (MBC) that had previously responded to hormone therapy. The treatment was continued until disease progression (PD).
CBR will be correlated with AR status of metastatic tumor biopsy.
Serum prostate specific antigen (PSA) was evaluated as a biomarker of AR activity.
Female subjects with ER-positive metastatic breast cancer who have previously been treated with up to 3 prior hormonal therapies for the treatment of breast cancer. Subjects must have been treated with and responded to previous adjuvant therapy for ≥3 years or hormonal therapy for metastatic disease for >6 months prior to progression. Details of subject selection criteria are presented below:
Measurable and non-measurable lesions (primary and/or metastatic) were identified and assessed by a modified Response Evaluation Criteria In Solid Tumors (RECIST 1.1) classification over the course of this study (described in detail below).
The primary efficacy analysis was the clinical benefit in subjects with AR-positive breast cancer at 6 months as measured by a modified Response Evaluation Criteria In Solid Tumors (RECIST 1.1) classification. Key secondary endpoints of clinical benefit in all subjects and AR-negative subjects, as well as objective response rate, progression free survival, time to progression, duration of response, incidence of SREs, and time to first SRE in subsets based on AR status (i.e., all subjects, AR-positive subjects, and AR-negative subjects) was also assessed. Effects on CA 27-29, PSA, bone turnover markers, QOL, and libido were assessed as tertiary endpoints.
Clinical benefit in a subject is defined as a complete response [CR], a partial response [PR] or stable disease [SD] as measured by modified RECIST 1.1, which is described in detail below. (Eisenhauer E A et al. New response evaluation criteria in solid tumors: revised RECIST guideline (version 1.1). European Journal of Cancer 45:228-247, 2009).

[1] = 9 mg daily, individual patients

`C[C@](O)(COc1ccc(C#N)cc1)C(=O)Nc1ccc(C#N)c(C(F)(F)F)c1` [Formula IX, (S)—N-(4-Cyano-3-(trifluoromethyl)phenyl)-3-(4-cyanophenoxy)-2-hydroxy-2-methylpropanamide] was tested, and the “CR or PR” value (9 mg daily) was “no CR or PR has been observed”, the “adverse event: A-fib” value (9 mg daily) was 1 and the “adverse event: anxiety/emotional changes” value (9 mg daily) was 5. The “adverse event: arthralgia” value (9 mg daily) was 6, the “adverse event: bloating” value (9 mg daily) was 2 and the “adverse event: bruising” value (9 mg daily) was 1. The “adverse event: cellulitis” value (9 mg daily) was 1, the “adverse event: chills” value (9 mg daily) was 1 and the “adverse event: constipation” value (9 mg daily) was 2. For the same molecule, the “adverse event: cough” value (9 mg daily) was 1, the “adverse event: dehydration” value (9 mg daily) was 1 and the “adverse event: diarrhea” value (9 mg daily) was 3. For the same molecule, the “adverse event: dizziness” value (9 mg daily) was 2, the “adverse event: dysgeusia” value (9 mg daily) was 1 and the “adverse event: dyspepsia” value (9 mg daily) was 1. The “adverse event: dyspnea” value (9 mg daily) was 3, the “adverse event: edema” value (9 mg daily) was 2 and the “adverse event: fatigue” value (9 mg daily) was 14. The “adverse event: fever” value (9 mg daily) was 1, the “adverse event: flatulence” value (9 mg daily) was 1 and the “adverse event: glaucoma” value (9 mg daily) was 1. The “adverse event: headache” value (9 mg daily) was 4, the “adverse event: hot flash night sweats” value (9 mg daily) was 7 and the “adverse event: hypertension” value (9 mg daily) was 2. For the same molecule, the “adverse event: infection” value (9 mg daily) was 1, the “adverse event: insomnia” value (9 mg daily) was 2 and the “adverse event: myalgia” value (9 mg daily) was 5. The “adverse event: nail discoloration” value (9 mg daily) was 1, the “adverse event: nausea” value (9 mg daily) was 11 and the “adverse event: pain” value (9 mg daily) was 22. For the same molecule, the “adverse event: paresthesia” value (9 mg daily) was 1, the “adverse event: pleural effusion” value (9 mg daily) was 1 and the “adverse event: polyuria” value (9 mg daily) was 1. The “adverse event: post menopausal bleeding” value (9 mg daily) was 3, the “adverse event: stiffness” value (9 mg daily) was 1 and the “adverse event: tendonitis” value (9 mg daily) was 1. For the same molecule, the “adverse event: vision changes” value (9 mg daily) was 3, the “adverse event: vomiting” value (9 mg daily) was 2 and the “adverse event: weight gain” value (9 mg daily) was 2. For the same molecule, the “adverse event: weight loss” value (9 mg daily) was 2, the “duration of stable disease, one ongoing subject” value (9 mg daily) was > 336 days and the “liver enzymes (ALT, AST and bilirubin)” value (9 mg daily) was “returned to baseline”. For the same molecule, the “median duration of SD as best response” value (9 mg daily) was 212 days, the “median time to PD” value (9 mg daily) was 80 days and the “patients who reached 6 m that are AR-positive with SD and increased PSA” value (9 mg daily) was “six”. For the same molecule, the “patients with increased PSA levels” value (9 mg daily) was 20 of the 22, the “subjects with progressive disease at 6 months or prior” value (9 mg daily) was “N = 12” and the tolerability (9 mg daily) was “well-tolerated”. The “patients with PD (current disposition)” value (9 mg daily, 22 patients) was 15, the “patients with SD (current disposition)” value (9 mg daily, 22 patients) was 4 and the “subjects achieving CB as best response” value (9 mg daily, all subjects) was 41%. For the same molecule, the “Current Disposition” value [1] was “D/C (2×) and Deceased (4×)”, the “Day 84 RECIST” value [1] was “D/C SAE and PD SAE and D/C” and the “MAX PSA F/U” value [1] was 2.430 and 0.058 and 0.008 and <0.007 and 0.078 and 0.217 and 9.610 and 0.450 and 3.540 and 0.238 and 8.180 and 0.548 and 0.062 and 0.024 and 13.160 and 0.069 and 0.031 and 0.795 and 0.301 and 0.028 and 0.046 and 0.092. For the same molecule, the tolerability (9 mg daily, listed as Enobosarm) was “well tolerated”, the “tumor regression in one subject with SD” value (9 mg daily, single target lesion) was 27% and the “6-month Kaplan-Meier estimate for radiographic progression free survival” value (9 mg oral daily) was 43.8%. For the same molecule, the “clinical benefit rate at 6 months” value (9 mg oral daily) was 35.3%, the Progression free probability (Day 84) was 57.5% and the Progression free probability (Day 168) was 50.5%. The “time to progression (TTP)” value (seven subjects who achieved CB at six months) was 10.2 months.
